Assay results published in patent US20250000850A1, “COMPOSITION USED TO PREVENT OR SUPPRESS REFEEDING SYNDROME” (OTSUKA PHARMACEUTICAL FACTORY, INC., priority 2021, published 2025).

Experiment: Effect of rapamycin on blood phosphorus concentration after refeeding to protein-undernourished rats
Assay type: in vivo, male Wistar rats
Conditions: rapamycin 2 mg/mL at 0.75 mL/kg i.p., mean ± SD, n=8
Method: Using male Wistar rats (7 weeks old at time of purchase; Charles River Laboratories Japan, Inc.), a group of rats fed with a purified diet having a protein content of 2.5% (referred to below as “low-protein diet”) for at least 3 weeks, and a group of rats fed with a purified diet having a protein content of 20% (referred to below as “normal diet”) for at least 3 weeks were prepared. […] Each animal had access to tap water ad libitum for at least 3 weeks. After fasting with ad libitum access to water for 24 hours, jugular vein catheterization was performed under isoflurane anesthesia, and the other end of the catheter was passed under the skin, exited from the back, and connected to a syringe containing physiological saline via a harness. The rats were then kept in individual metabolic cages with the catheter being open. Post-operatively, an antibiotic (ampicillin) was injected intramuscularly at a dose of 5 mg/100 μL/rat. After recovery from anesthesia, blood (400 μL) was collected from the catheter placed in the jugular vein, then injected into a tube containing sodium heparin, and stored on ice. The blood was promptly fractionated to obtain plasma, and the inorganic phosphorus concentration in the plasma was promptly measured using a Fuji Dry Chem Slide (produced by Fuji Film Corporation). The rats were grouped into predetermined groups using the obtained measurements and body weight data as indices.
The physiological saline was replaced with a nutrient infusion preparation or an electrolyte preparation at 5 p.m. to start administration to the animals. The nutrient infusion preparation used was Elneopa-NF No. 2 infusion (produced by Otsuka Pharmaceutical Factory Co., Ltd.). The electrolyte formulation used was an electrolyte infusion preparation composed of the electrolyte contained in Elneopa-NF No. 2 infusion. […] Immediately before administering these preparations, either a solvent (dimethyl sulfoxide, produced by Fujifilm Wako Pure Chemicals Corporation; referred to below as “DMSO”) or a solution of 2 mg/mL of rapamycin (produced by Tokyo Chemical Industry Co., Ltd.) whose side effect of inhibiting muscle synthesis was known was intraperitoneally administered by bolus at a dose of 0.75 mL/kg in each case. […]
Starting at 9 a.m. on the day after the start of administration, blood was collected from the abdominal aorta by using a syringe under isoflurane anesthesia. […] The concentration of inorganic phosphorus in the plasma was determined by an enzymatic method (Determiner L, produced by Hitachi Chemical Diagnostics Systems Co., Ltd.).

## CO[C@H]1C[C@@H]2CC[C@@H](C)[C@@](O)(O2)C(=O)C(=O)N2CCCC[C@H]2C(=O)O[C@H]([C@H](C)C[C@@H]2CC[C@@H](O)[C@H](OC)C2)CC(=O)[C@H](C)/C=C(\C)[C@@H](O)[C@@H](OC)C(=O)[C@H](C)C[C@H](C)/C=C/C=C/C=C/1C [rapamycin]
LPD (electrolyte + rapamycin): low-protein diet rats, electrolyte infusion 16 h
  Plasma phosphorus concentration after administration: 6.1 ± 0.6 mg/dL
LPD (refeeding + rapamycin): low-protein diet rats, nutrient infusion 16 h
  Plasma phosphorus concentration after administration: 4.2 ± 0.4 mg/dL
NPD (electrolyte + rapamycin): normal diet rats, electrolyte infusion 16 h
  Plasma phosphorus concentration after administration: 6.4 ± 0.4 mg/dL
NPD (refeeding + rapamycin): normal diet rats, nutrient infusion 16 h
  Plasma phosphorus concentration after administration: 4.7 ± 0.4 mg/dL
